From patent US20110294874A1, “DIAGNOSIS AND THERAPY OF ORGAN DYSFUNCTION USING SPHINGANINE-1-PHOSPHATE” (The Trustees of Columbia University in the City of New York, priority 2008, published 2011)
“And” between values parts separate entries of the source, which are not always exact repeats. Equal entries are not always repeated.

Experiments:
[1] = tested on: C57BL/6 mice subjected to liver IR; experiment: Murine model of liver ischemia reperfusion (hepatic IR): plasma ALT and creatinine; type: in vivo, mouse
[2] = tested on: C57BL/6 mice subjected to liver IR; experiment: Liver H&E histology after liver IR (percent necrosis, Suzuki score); type: in vivo, mouse; settings: liver IR; for Suzuki score (0 = no injury, 12 = maximal injury): H&E liver
Method: (§1) Mice were anesthetized with intraperitoneal pentobarbital (50 mg/kg or to effect). Mice were placed under a heating lamp and on a 37° C. heating pad. After a midline laparotomy and intraperitoneal application of 20 U heparin, left lateral and median lobes of the liver were subjected to ischemia with a microaneurysm clip occluding the hepatic triad above the bifurcation. This method of partial hepatic ischemia results in a segmental (˜70%) hepatic ischemia but spares the right lobe of the liver and prevents mesenteric venous congestion by allowing portal decompression throughout the right and caudate lobes of the liver. The liver was then repositioned in the peritoneal cavity in its original location for 60 minutes. The liver was kept moist with gauze soaked in 0.9% normal saline. The body temperature was monitored by an infrared temperature sensor (Linear Laboratories, Fremont, Calif.) every 10 min. and maintained at 37° C. using a heating lamp and a heating pad. After 60 minutes, the liver was reperfused and the wound closed. Sham-operated mice were subjected to laparotomy and identical liver manipulations without vascular occlusion. Two, 4 and 24 hr after reperfusion, plasma was collected for the measurement of alanine aminotransferase (ALT), a common indicator of liver damage, as well as creatinine (Cr) a common indicator of kidney damage. The liver tissue subjected to IR was collected to measure percent liver necrosis (2, 4 and 24 hr after IR), neutrophil infiltration (with immunohistochemistry, 4 and 24 hr after IR), apoptosis (with terminal deoxynucleotidyl transferase-mediated dUTP nick end labeling staining, caspase 3 immunoblotting and DNA laddering, 24 hr after IR), and inflammation by RT-PCR for pro-inflammatory mRNAs (4 hr after IR).
Livers were also analyzed for the degree of hepatocellular damage using the Suzuki's criteria (Suzuki et al., Transplantation 1993, Vol. 55, pp. 1265-1272). To obtain a Suzuki score, 3 liver injury indices are graded: sinusoidal congestion (0-4), hepatocyte necrosis (0-4), and ballooning degeneration (0-4) are graded for a total score of 0-12. No necrosis, congestion, or centrilobular ballooning is given a score of 0 whereas severe congestion/ballooning and >60% lobular necrosis is given a value of 4.

[3] = tested on: C57BL/6 mice subjected to liver IR; experiment: Kidney H&E histology after liver IR; type: in vivo, mouse; settings: vs vehicle-treated controls
Source text: Liver IR-induced AKI in mice shared similar histological changes observed in human AKI associated with liver failure, as observed in H&E slides of kidney sections taken from the mice (see FIG. 3). Multifocal acute tubular injury including individual cell necrosis involving the juxtamedullary proximal tubules of the S3 segment was observed. […] Endothelial apoptosis of peritubular capillaries was also visible in H&E sections as linear arrays of apoptotic bodies corresponding to the interstitial capillary lining endothelium. […] The number of glomeruli with detectable juxtaglomerular apparatus and the number of cells per juxtaglomerular apparatus were both increased after liver IR, indicating hyperplasia of the juxtaglomerular apparatus. […] Liver IR produced large necrotic areas of liver tissue. The average percentage of necrotic areas in liver samples taken from liver IR mice were 92%±2% (n=6), while no necrosis was found in sham-operated mice. Livers were also analyzed for the degree of hepatocellular damage.

[4] = tested on: C57BL/6 mice subjected to liver IR; experiment: Neutrophil infiltration into liver and kidney after liver IR; type: in vivo, mouse
Method: as §1, with “The liver tissue subjected to IR was collected to measure percent liver necrosis (2, 4 and 24 hr after IR), neutrophil infiltration (with immunohistochemistry, 4 and 24 hr after IR), apoptosis (with terminal deoxynucleotidyl transferase-mediated dUTP nick end labeling staining, caspase 3 immunoblotting and DNA laddering, 24 hr after IR), and inflammation by RT-PCR for pro-inflammatory mRNAs (4 hr after IR).” left out

[5] = tested on: C57BL/6 mice subjected to liver IR; experiment: Apoptosis (TUNEL, DNA laddering, caspase 3) and F-actin (phalloidin) in liver and kidney after liver IR; type: in vivo, mouse
Method: as §1
Apoptosis was detected in both liver and kidney taken from mice subjected to liver IR, through TUNEL staining, DNA laddering and caspase 3 fragmentation.

[6] = tested on: C57BL/6 mice subjected to liver IR; experiment: Evans blue dye extravasation (vascular permeability) in liver and kidney after liver IR; type: in vivo, mouse; settings: vs vehicle-treated group
Method: After observing marked endothelial apoptosis following liver IR, liver and kidney vascular permeability after liver IR was measured with Evans blue dye (EBD) injection. EBD binds to plasma proteins and its appearance in extravascular tissues reflects an increase in vascular permeability, which is indicative of organ injury. Liver IR increased the EBD content (in μg EBD/g dry weight) in the liver (377±48, N=6) compared to sham-operated mice (48±7, N=4, p<0.001).

[7] = tested on: IHUVEC monolayers; experiment: Evans blue dye-albumin permeability of IHUVEC monolayers; type: cell-based, human
Method: (§2) IHUVEC—immortalized human umbilical vein endothelial cells (ATCC, P.O. Box 1549 Manassas, Va. 20108) or HRGEC—human renal glomerular endothelial cells (ScienCell Research Laboratories, 6076 Corte Del Cedro Carlsbad, Calif. 92011) were cultured within a humidified atmosphere of 5% CO2 in air and grown to confluence. When confluent, the cells were trypsinized and seeded onto 0.45 μm pore size polycarbonate filters at the base of inserts of 6.5 mm diameter Transwell chambers and cultured until confluence.
Human endothelial cell permeability was assessed with the Evans blue dye extravasation assay (Awad et al., 2006). The permeability characteristics of the resulting confluent monolayers were assessed by following the diffusion of albumin-conjugated Evan's blue dye from the upper to lower compartments of the Transwell chambers. After addition of dye, chambers were shaken and allowed to equilibrate for 10-30 min at 37° C. After equilibration, stimuli were added and dye levels in lower compartments intermittently assayed by spectrophotometric analysis.
The addition of TNF-α or thrombin induces apoptosis and increases cell permeability in cultured endothelial cells.

[8] = tested on: human renal glomerular endothelial cells (HRGEC); experiment: HRGEC apoptosis, kinase phosphorylation, HSP27 and F-actin; type: cell-based
Method: as §2
In further experiments, apoptosis was induced in human renal endothelial (HRGEC) cells with either TNF-α plus cycloheximide or H2O2, with or without Sg1P treatment. In both cases, the addition of Sg1P (1 uM) reduced PARP and caspase 3 fragmentations, which are indices of apoptosis (N=2, data not shown).

[9] = 0.2 mg/kg i.v. 2 hours post-reperfusion
[10] = C57BL/6 mice, 60 min liver ischemia, 24 h reperfusion
[11] = single dose 0.1 mg/kg i.v. immediately before reperfusion
[12] = single dose 0.2 mg/kg s.c. two hours after reperfusion

CCCCCCCCCCCCCCC[C@@H](O)[C@@H](N)COP(=O)(O)O [Sg1P, sphinganine-1-phosphate]
ALT (liver protection) [1, 9]: 12063±593 U/L | Creatinine (kidney protection) [1, 9]: 0.93 ± 0.05 mg/dL | Serum ALT (mean) [1, 10]: 7474±557 U/L and 7474 U/L | Serum creatinine (mean) [1, 10]: 0.528 ± 0.07 mg/dL and 0.55 mg/dL | Most effective dose for treating both kidney and liver failure ([1]; dose response 0.01-1.0 mg/kg i.v. prior to reperfusion plus double dose s.c. 2 h after, serum creatinine and ALT): 0.1 mg/kg i.v. prior to reperfusion followed by 0.2 mg/kg s.c. 2 hours after reperfusion | Reduction in the severity of liver injury (change in ALT levels) ([1]; non-nephrectomized mice): 50% | ALT [1, 11]: 7197±753 U/L | Cr [1, 11]: 0.58 ± 0.06 mg/dL | ALT [1, 12]: 14762±1732 U/L | Cr [1, 12]: 0.98 ± 0.06 mg/dL | Suzuki score (0 = no injury, 12 = maximal injury) [2]: 5.2 ± 0.8 | Suzuki score (0 = no injury, 12 = maximal injury) ([2]; listed as sphinganine 1-phosphate): 5.2±0.8 | Average percent necrotic areas in liver ([2]; H&E): 44±8% | Indications of AKI in kidney H&E slides [3]: significantly less indications of AKI | Neutrophils in necrotic areas of the liver [4]: 21.8±7.1 neutrophils/field | Neutrophils in the kidneys [4]: 0.8±0.3 neutrophils/field | Caspase 3 fragmentation in liver and kidney [5]: significantly reduced | TUNEL staining, DNA laddering in liver and kidney [5]: significantly reduced | F-actin structure in liver and kidney (phalloidin) ([5]; vs vehicle): better-preserved F-actin structure | Increase in EBD content in liver and kidney [6]: significantly lower | Thrombin-induced permeability (albumin leak) ([7]; 5 U/ml thrombin): same cytoprotective effect | TNF-α-induced permeability (albumin leak) ([7]; TNF-α 50 ng/ml or 100 ng/ml, concurrent Sg1P): reduced the permeability of the cells to levels comparable to control | PARP and caspase 3 fragmentations ([8]; 1 uM, apoptosis induced with TNF-α plus cycloheximide or H2O2): reduced | Phalloidin staining (F-actin) ([8]; HRGEC treated with TNF-α, co-administration): restored the phalloidin staining | HSP27 phosphorylation and total HSP27 expression ([8]; HRGEC, 1 μM): induced the phosphorylation of HSP27, as well as increased expression of total HSP27 | Phosphorylation of ERK and Akt ([8]; HRGEC, 1 μM): resulted in the phosphorylation
